Structures can show the parent of a compound that is named as a salt.
Legend:
[1] = system: bronchoconstriction caused by 100 nmol/kg of histamine; experiment: Histamine-induced bronchoconstriction test (Konzett and Rossler), intranasal-powder (In.P.) administration; format: in vivo, guinea pigs
Text: Furthermore, the antihistaminic properties were studied in guinea pigs by the bronchoconstriction test performed according to the method of H. Konzett and R. Rossler (Arch. Exp. Path. Pharmak.--Naunym Schmiedeberg - 195, 71-74, 1940). The products of the invention were studied in this test after administration in solution or in suspension via the intravenous and intraduodenal routes, and also in powder form via the intranasal route. Irrespective of the administration route, the preparation of the animals employed in the test consists in first anesthetizing male guinea pigs weighing 350 to 400 g by intraperitoneal (i.p.) injection of a sterile and isotonic solution containing 25% (w/v.) of ethyl carbamate on the basis of 6.0 ml/kg, and in then fitting the animals with a tracheal cannula to permit measurement of the pulmonary pressure, a cannula in the right jugular vein for the intravenous (i.v.) administration of solution, and also a cannula in the left carotid artery for qualitative observation of the blood pressure. The animals are then connected to a pump (Harvard, ref. 50-1718) in order to maintain an artificial ventilation at a frequency of 60 insufflations per minute; the intratracheal pressure is recorded by an assembly comprising a transducer, an amplifier and a recorder (Gould, respective refs.: PLOEZ, 13-4615-50 and 8188-[…]-06). Fitted in this way, the animals are left undisturbed for 10 minutes before the beginning of the actual experiment, which is carried out in different ways according to the administration route envisaged. c) intranasal-powder (In.p) administration The test product is administered via a nasal insufflation of a powder consisting of 20 mg of lactose loaded with the appropriate quantity of the test product. Before this insufflation, the artificial ventilation of the animal is momentarily stopped in order to facilitate the pulmonary penetration of the compound. […] Failing this expression, the results are expressed as a % change at the time in question and for a given concentration of the test product. […]

[2] = system: bronchoconstriction caused by ovalbumin in the sensitized animal; experiment: Inhibition of ovalbumin-induced anaphylactic bronchoconstriction in sensitized guinea pigs, oral; format: in vivo; details: Cavia porcellus, 1 h, intratracheal pressure after 60 minutes, read-out: ED50 inhibiting 50% of ovalbumin-induced bronchoconstriction
Experimental: The technique performed consists in previously sensitizing guinea pigs weighing 250 to 300 g by two intraperitoneal injections, separated by an interval of 24 hours, of 0.5 ml of a sterile suspension of physiological saline (0.9% NaCl) containing 20 μg of ovalbumin (Grade V; Sigma) and 100 mg of aluminum hydroxide Al(OH)3. At the same time, unsensitized control animals are treated with two injections of suspension not containing ovalbumin. The actual experiment is performed after a period needed for the sensitization of the animals, which is between 14 and 21 days. It is generally arrived at after 18 days, and consists in first administering increasing quantities of the test product in solution in water orally to groups of 5 animals, on the basis of 0.5 to 1.0 ml per animal, corresponding to doses of 1 to 10 μmol/kg of product. The animals are then anesthetized 50 minutes after this administration by an intraperitoneal injection of a solution of urethane. […] After 60 minutes, the intratracheal pressure measured in mm of Hg is determined for each animal of the test groups and those of the control group. These measurements enable the extent of the inhibition of bronchoconstriction produced by the test product to be determined. […]

SMILES | ED50 ([1]; Cavia porcellus, 5 min, t = 5 min, read-out: ED50 at t = 5 min, inhibition of histamine-induced bronchoconstriction) [µmol/kg] | ED50 at t = 5 min, inhibition of histamine-induced bronchoconstriction [1] [µmol/kg] | ED50 [2] [µmol/kg]
C=CCN(C)[C@](C)(CO)Cc1ccc(Cl)c(Cl)c1 [Example 2, base, (S)-(+)-N-allyl-2-methylamino-2-(3,4-dichlorobenzyl)-1-propanol] | 1.28 | – | –
C=CCN(C)[C@](C)(CO)Cc1ccc(Cl)c(Cl)c1 [Example 2, hydrochloride, (S)-(+)-N-allyl-2-methylamino-2-(3,4-dichlorobenzyl)-1-propanol] | – | 1.77 | 1.84

Source: patent publication US5348980A, “Enantiomers derived from (S)-2-amino-2-(3,4-dichlorobenzyl)-1-propanol, their use and method of preparation” (Institute de Recherche Jouveinal, priority 1992, dated 1994)
